# Data from ChEMBL document CHEMBL5120939, “Novel Isoindolinone-Based Analogs of the Natural Cyclic Peptide Fenestin A: Synthesis and Antitumor Activity” (ACS Med Chem Lett, 2022).
# Experiments:
# Format in all cases: functional
# [1] = tested on: HeLa; test: Induction of mitochondrial membrane potential loss in human HeLa cells assessed as decrease in fluorescence intensity […] at 12.3 uM by Rhodamine 123 staining based flow cytometric analysis (reference value: 58.0%); parameters: scale not given: the % may be the effect or the level left
# [2] = tested on: HeLa; test: Induction of apoptosis in human HeLa cells assessed as necrotic cells at 26.1 uM incubated for 48 hrs by annexinV-FITC/propidium iodide staining based flow cytometry analysis (reference value: 0.0%)
# [3] = tested on: HeLa; test: Induction of apoptosis in human HeLa cells assessed as late apoptotic cells at 19.6 uM incubated for 48 hrs by annexinV-FITC/propidium iodide staining based flow cytometry analysis (reference value: 0.1%)
# [4] = tested on: HeLa; test: Induction of cell cycle arrest in human HeLa cells assessed as 4N cells at 6.2 uM incubated for 48 hrs by RNAse A/PI staining based flow cytometric analysis (reference value: 5.37%)
# [5] = tested on: HeLa; test: Induction of cell cycle arrest in human HeLa cells assessed as 2N cells at 12.3 uM incubated for 48 hrs by RNAse A/PI staining based flow cytometric analysis (reference value: 29.9%)
# [6] = tested on: HeLa; test: Induction of cell cycle arrest in human HeLa cells assessed as >4N cells at 12.3 uM incubated for 24 hrs by RNAse A/PI staining based flow cytometric analysis (reference value: 2.61%)
# [7] = tested on: HeLa; test: Induction of cell cycle arrest in human HeLa cells assessed as >4N cells at 12.3 uM incubated for 48 hrs by RNAse A/PI staining based flow cytometric analysis (reference value: 2.61%)
# [8] = tested on: HeLa; test: Induction of apoptosis in human HeLa cells assessed as late apoptotic cells at 26.1 uM incubated for 48 hrs by annexinV-FITC/propidium iodide staining based flow cytometry analysis (reference value: 0.1%)
# [9] = tested on: HeLa; test: Induction of apoptosis in human HeLa cells assessed as early apoptotic cells at 13.2 uM incubated for 48 hrs by annexinV-FITC/propidium iodide staining based flow cytometry analysis (reference value: 0.1%)
# [10] = tested on: HeLa; test: Induction of cell cycle arrest in human HeLa cells assessed as 4N cells at 12.3 uM incubated for 12 hrs by RNAse A/PI staining based flow cytometric analysis (reference value: 5.37%)
# [11] = tested on: HeLa; test: Induction of cell cycle arrest in human HeLa cells assessed as 2N cells at 6.2 uM incubated for 48 hrs by RNAse A/PI staining based flow cytometric analysis (reference value: 29.9%)
structure (smiles),measurement,setting,value
CC[C@H](C)[C@@H]1NC(=O)[C@H](CC(C)C)NC(=O)[C@@H]2CSCN2C(=O)[C@@H]2CSCN2C(=O)CN2C(=O)c3ccccc3[C@@]2(O)CN(Cc2ccccc2)C1=O,Activity,[1],32.3%
same,Activity,[2],0.9%
same,Activity,[3],6.7%
same,Activity,[4],17%
same,Activity,[5],28.1%
same,Activity,[6],11%
same,Activity,[7],0%
same,Activity,[8],6.4%
same,Activity,[9],5.6%
same,Activity,[10],16.8%
same,Activity,[11],24.9%
